This note sets out measurements from US12404260B2, “Pyridine rings containing derivatives as MALT1 inhibitors” (Janssen Pharmaceutica NV, priority 2019, dated 2025).

Assay [1] deals with T1, full-length MALT1 protein (Strep-MALT1(1-824)-His) (Homo sapiens, UniProt Q9UDY8).
T1 construct: full-length MALT1 protein (Strep-MALT1(1-824)-His) purified from baculovirus-infected insect cells; Strep (N); His (C); made in house; host or cells: baculovirus-infected insect cells
T1 sequence (Q9UDY8 1-824): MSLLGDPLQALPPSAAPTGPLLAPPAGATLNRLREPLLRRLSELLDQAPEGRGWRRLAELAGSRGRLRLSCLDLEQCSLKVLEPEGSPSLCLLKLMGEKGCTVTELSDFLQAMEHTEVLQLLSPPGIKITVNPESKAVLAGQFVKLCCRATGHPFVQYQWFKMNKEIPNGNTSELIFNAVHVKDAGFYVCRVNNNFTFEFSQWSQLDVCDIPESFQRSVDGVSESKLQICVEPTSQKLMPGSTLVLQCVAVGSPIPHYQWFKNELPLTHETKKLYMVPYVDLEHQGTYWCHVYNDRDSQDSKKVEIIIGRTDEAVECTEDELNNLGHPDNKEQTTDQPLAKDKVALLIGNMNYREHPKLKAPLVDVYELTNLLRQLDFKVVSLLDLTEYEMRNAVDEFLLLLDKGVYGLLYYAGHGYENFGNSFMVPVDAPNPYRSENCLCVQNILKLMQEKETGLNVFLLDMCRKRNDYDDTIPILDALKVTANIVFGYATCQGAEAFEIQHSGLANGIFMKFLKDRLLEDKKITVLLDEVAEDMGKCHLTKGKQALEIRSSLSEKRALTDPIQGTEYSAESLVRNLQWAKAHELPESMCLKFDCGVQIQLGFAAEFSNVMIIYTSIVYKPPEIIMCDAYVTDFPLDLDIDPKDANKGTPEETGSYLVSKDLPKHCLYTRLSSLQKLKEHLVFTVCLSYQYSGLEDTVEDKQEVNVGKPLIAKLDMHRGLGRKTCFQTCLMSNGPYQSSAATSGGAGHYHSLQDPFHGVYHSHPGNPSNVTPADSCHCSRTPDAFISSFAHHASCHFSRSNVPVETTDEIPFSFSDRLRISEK
The assay can be described thus: MALT1 Biochemical Protease Assay. The conditions noted are these: 10 nM FL MALT1, 200 μM Ac-LRSR-AMC, 50 min pre-incubation, 4 h at RT; read-out: MALT1_Biochemical activity (Ac-LRSR-amc) IC50. On the procedure: MALT1 protease activity was assessed in an in vitro assay using a tetrapeptide as substrate and full-length MALT1 protein (Strep-MALT1(1-824)-His) purified from baculovirus-infected insect cells. The tetrapeptide LRSR is coupled to AMC (7-amino-4-methylcoumarin) and provides a quenched, fluorescent substrate for the MALT1 protease (SM Biochemicals). Cleavage of AMC from the Arginine residue results in an increase in coumarin fluorescence measured at 460 nm (excitation 355 nm). The final assay buffer consisted of 10 nM FL MALT1 protein, 200 μM Ac-LRSR-AMC, 50 mM Tris pH 7.5, 0.6 M Citrate, 1 mM DTT, 1 mM EDTA, 0.05% BSA and 1.5% DMSO. Test compounds were spotted at 50 nL in 100% DMSO per well of a black 384-Proxiplate (Perkin Elmer). Test compound concentrations ranged from 30 μM to 0.5 nM using 11 dilution steps (1:3). Background signal was measured from control wells containing assay buffer without enzyme which functions as low control (LC). High control (HC) values were generated using the reaction with enzyme but no compound treatment. Compounds were pre-incubated with MALT1 enzyme for 50 minutes at RT. Substrate was added subsequently and fluorescence was measured in Labsystems fluoroskan at excitation 355 nm and emission 460 nm to determine time 0. The reaction was subsequently incubated for 4 h at RT and fluorescence was measured. For IC50 calculations, timepoint 0 was subtracted from the 4 h timepoint to correct for any potential autofluorescence of the compounds. The enzyme reaction was linear during the 4 h incubation period. Characterization of the substrate Ac-LRSR-AMC determined the Michaelis constant KM at 200 μM.
IC50 values were calculated using the following formula (Z prime should be >0.5): […]
A best-fit curve was fitted by a minimum sum of squares method to the plot of % Controlmin vs. compound concentration. From this an IC50 value (inhibitory concentration causing 50% inhibition) can be obtained. An estimate of the slope of the plot in terms of the Hill coefficient was also obtained.
Used in “Lexis Dose Response Curve Fitting” Version 1.0.

In assay [2] the test system is secretion of IL10 by OCI-LY3 ABC-DLBCL cells. The assay can be described thus: Human IL10 Mesoscale assay (OCI-LY3). The conditions noted are these: 24 h incubation, IL10 in supernatant. The assay is classed as cell-based. On the procedure: (§1) NFKB signaling regulates the secretion of multiple cytokines, including IL6 and IL10. Secretion of the cytokines IL6 and IL10 by OCI-LY3 ABC-DLBCL cells was measured using a mesoscale assay. Inhibition of NFKB signaling by MALT1 inhibitors results in a decrease of IL6/10 secretion.
(§2) OCI-LY3 cells were propagated in RPMI-1640 (Sigma Aldrich) supplemented with 10% fetal bovine serum (HyClone), 1 mM sodium pyruvate (Invitrogen), 2 mM L-glutamine (Sigma Aldrich) and 1% PenStrep (Sigma Aldrich). Cell passage number should not exceed 30. Cells should be kept between 0.5-2.5 million cells per mL during culturing and cells should be supplemented every 2-3 days with fresh 50 μM beta-mercaptoethanol. No beta-mercaptoethanol was used during the mesoscale assay.
(§3) For the Mesoscale assay, 100,000 OCI-LY3 cells were seeded per well into black-colored 96-well plates with clear bottom (Corning #3904) and test compounds were added in 9 dilution steps (1:2) ranging from 15 μM to 58.6 nM (final DMSO concentration 0.3%). DMSO control wells were used to determine the maximum signal (High Control (HC)). Treatment with the BTK inhibitor RN486 in a dose range from 30 nM to […] (9 dilutions of 1:2) served as a positive control for NFKB pathway inhibition and was used to determine the maximum inhibition (Low Control (LC)). Compounds and cells were incubated for 24 h at 37° C. and 5% CO2 (assay volume is 150 μL). After 24 h of incubation 50 μL of the supernatant was transferred to a MSD plate (V-Plex Proinflammation Panel 1 (human) kit, Mesoscale (MSD)) and incubated for 2 h with vigorous shaking (600 rpm) at room temperature. Following incubation, plates were washed 3× with PBS+0.05% Tween-20 and 25 μL detection antibody solution (IL6 & IL10 antibodies in diluent 3 (MSD)) was added per well followed by 2 h of incubation with vigorous shaking (600 rpm) at room temperature. After 3× washes with PBS+0.05% Tween-20, plates were incubated with 150 μL 2× Read Buffer T and read on SECTOR imager.

Assay [3] has as its system secretion of IL6 by OCI-LY3 ABC-DLBCL cells. The assay can be described thus: Human IL6 Mesoscale assay (OCI-LY3). In kind it is cell-based. The conditions noted are these: 24 h incubation, IL6 in supernatant. As to the method: as §1, §2, §3

A word on the IC50: it is the point on the concentration scale where inhibition reaches its midpoint. `COc1cncc(NC(=O)Nc2cc(Cl)c(-n3nccn3)nc2OC)c1[C@H](C)OC` (single isomer, unassigned) [Co. 141]: the results for the IC50 in assay [1], in assay [2] (Homo sapiens) and in assay [3] (Homo sapiens) were 60 nM, 140 nM and 130 nM, respectively.
Turning to `CO[C@@H](C)c1c(NC(=O)Nc2cnc(-n3nccn3)c(Cl)c2)cnc(C)c1Cl` [Co. 105], the IC50 in assay [1] was 40 nM; in assay [2] it was 60 nM; in assay [3], 120 nM.
As for `CCOC(=O)COc1cncc(NC(=O)Nc2cnc(-n3nccn3)c(Cl)c2)c1C(C)OC` (racemic) [Co. 14], the figures for the IC50 in assay [1], in assay [2] and in assay [3] were 3240 nM, 8130 nM and 11000 nM, respectively.
In the case of `CO[C@@H](c1c(NC(=O)Nc2cnc(-n3nccn3)c(C(F)(F)F)c2)cnc(C)c1C#N)C1CC1` [Co. 121], the IC50 stood at 20 nM in assay [1], 40 nM in assay [2] and 60 nM in assay [3].
For the molecule `COc1cncc(NC(=O)Nc2cc(Cl)c(-n3nccn3)nc2OC)c1[C@@H](C)OC` (single isomer, unassigned) [Co. 140], the values for the IC50 in assay [1], in assay [2] (Homo sapiens) and in assay [3] (Homo sapiens) were around 620 nM, 470 nM and 540 nM, respectively.
Turning to `COc1nc(-n2nccn2)c(Cl)cc1NC(=O)Nc1cnc(C)c(Cl)c1[C@H](C)OC` [Co. 83], the IC50 in assay [1] came to 350 nM; in assay [2], 180 nM; in assay [3], 500 nM.
`COC(C)c1c(Br)c(C)nc(C)c1NC(=O)Nc1cnc(-n2nccn2)c(Cl)c1` (racemic) [Co. 49]: the values for the half-inhibitory concentration (IC50) in assay [1], in assay [2] and in assay [3] were 620 nM, 1700 nM and 2340 nM, respectively.
Take `CO[C@@H](C)c1c(NC(=O)Nc2cnc(C3CC3)c(Cl)c2)cnc(C)c1Br` [Co. 56]: the IC50 is 2510 nM in assay [1], 9330 nM in assay [2] and above 15000 nM in assay [3].
With `CO[C@@H](C)c1c(NC(=O)Nc2cnc(-n3nccn3)c(Cl)c2)cnc(N)c1Br` [Co. 118], the IC50 in assay [1] was 480 nM; in assay [2], 1510 nM; in assay [3], 2750 nM.
As to `CO[C@@H](C)c1c(NC(=O)Nc2cnc(-n3nccn3)c(C(F)(F)F)c2)cnc(C)c1Cl` [Co. 111], the IC50 turned out to be 30 nM in assay [1], 60 nM in assay [2] and 90 nM in assay [3].
For `CO[C@H](C)c1c(NC(=O)Nc2ccnc(C(F)(F)F)c2)cnc(C)c1Cl` [Co. 64] the same measures were 170 nM, 190 nM and 680 nM.
`[2H]C([2H])([2H])O[C@H](C)c1c(NC(=O)Nc2cnc(-n3nccn3)c(C(F)(F)F)c2)cncc1OC` (single isomer, unassigned) [Co. 132]: the IC50 is 50 nM in assay [1], 60 nM in assay [2] (Homo sapiens) and 150 nM in assay [3] (Homo sapiens).
As to `CO[C@H](c1c(NC(=O)Nc2cnc(-n3nccn3)c(C(F)(F)F)c2)cnc(C)c1C#N)C1CC1` [Co. 122], the values for the IC50 in assay [1], in assay [2] and in assay [3] were 60 nM, 130 nM and 140 nM, respectively.
In the case of `CO[C@H](C)c1c(NC(=O)Nc2cnc(-n3nccn3)c(C(F)(F)F)c2)cnc(C)c1Cl` [Co. 112], the IC50 amounted to 680 nM in assay [1], 480 nM in assay [2] and 870 nM in assay [3].
Regarding `[2H]C([2H])([2H])Oc1cncc(NC(=O)Nc2cnc(-n3nccn3)c(C(F)(F)F)c2)c1[C@H](C)OC` (single isomer, unassigned) [Co. 129], the figures for the IC50 in assay [1], in assay [2] (Homo sapiens) and in assay [3] (Homo sapiens) were 1380 nM, 1020 nM and 2290 nM, respectively.
In the case of `COc1ncc(NC(=O)Nc2cnc(C)c(Cl)c2[C@@H](C)OC)cc1C#N` [Co. 77], the figures for the IC50 in assay [1], in assay [2] and in assay [3] were 8320 nM, 6030 nM and 7590 nM, respectively.
As to `COC(C)c1cc(C)ncc1NC(=O)Nc1cnc(-n2nccn2)c(Cl)c1` (racemic) [Co. 106], the figures for the IC50 in assay [1], in assay [2] and in assay [3] were 9120 nM, 5750 nM and 7240 nM, respectively.
As to `CO[C@H](C)c1c(NC(=O)Nc2cnc(-n3nccn3)c(Cl)c2)cnc(C)c1Br` [Co. 45], the 50% inhibitory concentration (IC50) in assay [1] is 20 nM; in assay [2], 50 nM; in assay [3], 60 nM.
Turning to `COc1nc(-n2nccn2)c(C(F)(F)F)cc1NC(=O)Nc1cnc(NC(C)(C)C)c(Br)c1C(C)OC` (stereo not drawn) [Co. 151], the IC50 in assay [1] was above 30000 nM; in assay [2] (Homo sapiens), above 15000 nM; in assay [3] (Homo sapiens), above 15000 nM.
Consider `CO[C@H](C)c1c(NC(=O)Nc2cnc(-n3nccn3)c(C(F)(F)F)c2)cnc(N)c1Br` (single isomer, unassigned) [Co. 138], for which the IC50 was found to be 290 nM in assay [1], 380 nM in assay [2] (Homo sapiens) and 600 nM in assay [3] (Homo sapiens).
For `CO[C@H](C)c1c(NC(=O)Nc2cnc(OC(F)F)c(Cl)c2)cnc(N)c1Cl` (single isomer, unassigned) [Co. 136] the same measures were 60 nM, 30 nM and 60 nM.
Take `COC(C)c1c(NC(=O)Nc2cnc(-n3nccn3)c(Cl)c2)cnc(C)c1Br` (stereo not drawn) [Co. 40]: the half-inhibitory concentration (IC50) in assay [1] was determined as 50 nM; in assay [2], 80 nM; in assay [3], 100 nM.
In the same order, the values of `COC(C)c1c(Br)cncc1NC(=O)Nc1cnc(-n2nccn2)c(Cl)c1` (single isomer, unassigned) [Co. 18] are 100 nM, 190 nM and 100 nM.
`CO[C@@H](C)c1c(NC(=O)Nc2cnc(-n3nccn3)c(C(F)(F)F)c2)cnc(N)c1Br` (single isomer, unassigned) [Co. 139]: the IC50 is 20 nM in assay [1], 70 nM in assay [2] (Homo sapiens) and around 100 nM in assay [3] (Homo sapiens).
